According to patent US10072055B2, “Anti-inflammatory pharmaceutical products” (Resother Pharma APS, priority 2011, dated 2018):
Ends that are not written are not given here.

Assays:
[1] = biological target: T1, FPR2 (Homo sapiens, UniProt P25090); assay: FPR2 activation (ERK phosphorylation and intracellular calcium fluxes); format: cell-based
T1 sequence (P25090 1-351): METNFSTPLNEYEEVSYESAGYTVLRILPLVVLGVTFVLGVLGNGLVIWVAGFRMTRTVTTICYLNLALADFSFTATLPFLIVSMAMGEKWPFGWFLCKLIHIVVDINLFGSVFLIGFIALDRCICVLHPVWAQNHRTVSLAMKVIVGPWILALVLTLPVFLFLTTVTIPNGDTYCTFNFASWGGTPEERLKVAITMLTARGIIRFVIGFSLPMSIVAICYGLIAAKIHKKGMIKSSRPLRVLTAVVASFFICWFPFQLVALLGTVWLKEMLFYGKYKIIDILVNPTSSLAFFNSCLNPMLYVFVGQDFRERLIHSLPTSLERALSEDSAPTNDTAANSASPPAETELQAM

[2] = tested on: inflamed microcirculation; assay: Inflamed microcirculation in vivo; set-up: species or system murine

activation of FPR2 [1]: could activate both FPR1 and FPR2
Substance: AMVSEFLKQAWFIENEEQEYVQTVKSSKGGPGSAVSPYPTFNPSSDVAA-NH2 [UGP022, ANXA1(2-50)-NH2]
anti-inflammatory properties in the inflamed microcirculation [2]: potency equivalent to human recombinant Annexin A1
